According to patent US7786147B2, “Analogs of choline for neuroprotection and cognitive enhancement in neurodegenerative disorders” (Medical College of Georgia Research Institute., priority 2001, dated 2010):

Legend:
[1] = biological target: 7 nicotinic acetylcholine receptor (Rattus norvegicus, UniProt Q05941); assay type: binding; details: PC-12 cells; FIG. 8
[2] = system: differentiated PC-12 cells; assay: MTT cell viability (neuroprotection) assay after neurotrophic factor withdrawal; assay type: cell-based; set-up: neuroprotective action after pretreatment with mecamylamine: dose or concentration left out as unconfirmed; details: for potency in neuroprotection relative to choline and its ethyl analogs (in words): effects at lowest dose 0.1 mM not much reduced from 10 mM
Method: Cell Culture: PC12 cells were maintained in 150-cm^2 tissue-culture flasks in Dulbecco's Modified Eagles medium containing 7% horse serum, 7% fetal calf serum, 1% non-essential amino-acids and 1% streptomycin (DMEM). The cells were incubated at 37 C in a 5% CO2-enriched, humidified atmosphere. To attain maximum differentiation, the cells were maintained in DMEM.NGF medium for 7 days, with the medium being changed every 2 or 3 days.
Assay for Cell viability. Cells were dissociated by trituration and plated at 1×10^4 cells per well on poly-L-lysine coated 96 well plates containing DMEM.NGF media. Next, the differentiated cells were incubated with the test drug at different concentrations for the specified period of time. Cell viability (cytotoxicity) was determined using the Cell Titer 96 non-radioactive cell proliferation/cytotoxicity assay kit (Promega), which is based on the cellular conversion of a 3-(4,5-dimethylthiazol-2-yl)-2,5-diphenyltetrazolium bromide (MTT) into a formazan product which can be detected spectrophotometrically. After deprivation of cells from NGF and serum, the medium was aspirated and 15 l of dye solution dissolved in DMEM was added. After an additional 4 hr incubation at 37 C, 100 l of solubilization/stop solution was added and the absorbance of solubilized MTT formazan products was measured at 570 nm.
Differentiated PC-12 cells were deprived of neurotrophic factors for 24 hr to promote cytotoxicity. Cell viability was measured by the MTT assay under control conditions, and in cultures in which a choline analog was introduced into the medium at the time of neurotrophic factor withdrawal. […] Choline and its mono-, di-, and tri-ethyl analogs produced a concentration dependent and intermediate level of neuroprotection improving cell viability by up to 40% of baseline.

[3] = system: differentiated PC-12 cells; assay: Cytoprotective effect (% Protection) with exposure 24 hours prior to growth factor withdrawal; assay type: cell-based; details: exposure 24 hours prior to removal of NGF and serum; FIGS. 11, 13A and B
Method: The above-described differentiated PC-12 cells were exposed to the indicated concentrations (see FIGS. 13A and B) of the FIG. 12 choline analogs 24 hours prior to growth factor withdrawal (removal of nerve growth factor, and changing from serum-containing to serum-free medium). % Protection values were calculated as the ratio of ELISA-based absorbance values for [protected cells−deprived cells (no analog):control (non-deprived) cells−deprived cells]×100. Each data point in FIG. 13 represents data obtained from two separate assays each performed with 5-8 replicates per point.

7 nicotinic acetylcholine receptor, sequence (Q05941 23-502): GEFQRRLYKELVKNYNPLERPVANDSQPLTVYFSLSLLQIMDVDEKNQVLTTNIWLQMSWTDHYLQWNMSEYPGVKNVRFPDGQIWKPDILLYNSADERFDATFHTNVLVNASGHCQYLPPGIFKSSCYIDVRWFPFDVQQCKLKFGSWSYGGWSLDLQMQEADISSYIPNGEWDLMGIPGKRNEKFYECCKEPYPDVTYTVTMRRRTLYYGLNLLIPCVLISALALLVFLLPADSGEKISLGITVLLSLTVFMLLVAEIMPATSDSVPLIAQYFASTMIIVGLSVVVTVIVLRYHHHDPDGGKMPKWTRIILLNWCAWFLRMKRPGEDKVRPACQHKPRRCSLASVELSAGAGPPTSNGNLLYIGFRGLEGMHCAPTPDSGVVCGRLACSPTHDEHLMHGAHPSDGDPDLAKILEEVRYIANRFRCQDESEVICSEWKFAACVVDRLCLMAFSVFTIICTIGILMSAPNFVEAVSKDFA

SMILES: C[N+]1(CCO)CCCC1 [pyrrolidinecholine]
- affinity for the [125I]-bungarotoxin site relative to choline (in words) [1]: slightly more potent affinity
- displacement of cell surface [125I]-bungarotoxin binding (in words) [1]: fully displaced
- neuroprotective action after pretreatment with MLA ([2]; MLA (10 nM) pretreatment, FIGS. 9 and 10): blocked
- potency in neuroprotection relative to choline and its ethyl analogs (in words) [2]: more potent
- neuroprotective action after pretreatment with mecamylamine ([2]; mecamylamine pretreatment, FIGS. 9 and 10): blocked

SMILES: CN1CCCC1c1cccnc1 (stereo not drawn) [nicotine]
- cytoprotective effect, % Protection concentration-effect curve (in words) [3]: biphasic

SMILES: C[N+](C)(CCO)Cc1ccccc1.[Br-] [benzylcholine]
- displacement of cell surface [125I]-bungarotoxin binding (in words) [1]: failed to significantly interact
- effect on cell viability (in words) ([2]; PC-12 cells deprived of neurotrophic factors for 24 hr, FIG. 5): did not affect cell viability

SMILES: CC(=O)OCC[N+]1(C)CCCC1 [acetylpyrrolidinecholine]
- potency in neuroprotection relative to choline and its ethyl analogs (in words) [2]: more potent
